What all share (assay): DTP human tumour cell line panel, 48 h
Assay [1] deals with HOP-62 NSCLC.
Assay [2] has as its system UACC-62 melanoma.
Assay [3] has as its system NCI-H23 lung.
In assay [4] the test system is HL-60(TB) leukemia.
In assay [5] the test system is A498 renal.
The subject of assay [6] is IGROV1 ovarian.
Assay [7] has as its system SW-620 colon.
For assay [8], the system named is M14 melanoma.
In assay [9] the test system is RPMI-8226 leukemia.
The test system of assay [10] is KM12 colon.
Assay [11] deals with OVCAR-5 ovarian.
The subject of assay [12] is COLO 205 colon.
For assay [13], the system named is RXF 393 renal.
The subject of assay [14] is HT29 colon.
The subject of assay [15] is HCT-116 colon.
Assay [16] relates to SK-MEL-5 melanoma.
For assay [17], the system named is SF-268 CNS.
Assay [18] relates to NCI-H226 lung.
Assay [19] deals with MOLT-4 leukemia.

Where “and” joins values, the source holds several entries; their conditions need not be identical. Equal entries are not always repeated.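 The compound was tested at five concentrations on cells cultured in 96-well plates, with a 48-hour exposure period. GI50: concentration for 50% inhibition of growth. Definition used: TGI = concentration required for complete inhibition of growth.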 Where only a bound is given, the exact number is not on record here.

Consider `CN(Cc1cccc2ccccc12)Cc1cccc2ccccc12`, for which the TGI in assay [1] was greater than 100 µM; in assay [2], greater than 100 µM; in assay [3], greater than 100 µM; in [4] it was 33.4 µM; in [5] it was 80.1 µM; in assay [6] it was greater than 100 µM. Moreover, the TGI in assay [7] was 57.9 µM; in assay [8], 74.3 µM; in assay [9], 50.1 µM; in [10], greater than 100 µM; in assay [11] it was greater than 100 µM; in assay [12], 35.2 µM. Further, the TGI in [13] was greater than 100 µM; in assay [14], greater than 100 µM; in [15], 55.8 µM; in assay [16], 33.6 µM; in assay [17] it was greater than 100 µM; in assay [18] it was 86.4 µM. The compound also gave a TGI in assay [19] of 35 µM.

Take `Nc1ccc(S(=O)(=O)Nc2ccc(Nc3c4ccccc4nc4ccccc34)cc2)cc1`: the TGI in [1] came out at 0.0805 µM; in [2] it was 3.66 µM; in assay [3] it was 0.732 µM; in [4], 0.183 µM; in [5] it was 1.14 µM; in assay [6] it was 19.7 µM. Besides, the TGI in assay [7] came out at 14.3 µM; in assay [8] it was 17.5 µM; in assay [9], 4.06 µM; in assay [10], 4.59 µM; in [11], 12.9 µM; in [12], 14.9 µM. The TGI in [13] came to 13.7 µM; in [14], 5.4 µM; in [15], 15.6 µM; in assay [16] it was 2 µM; in assay [17] it was 13.8 µM; in assay [18], 0.851 µM.

In the case of `N=[N+]=CC(=O)CCC(NC(=O)C(CCC(=O)C=[N+]=N)NC(=O)CCC(N)C(=O)O)C(=O)O` (stereo unspecified), the TGI in assay [1], in assay [2], in [3], in assay [4], in assay [5] and in assay [6] was greater than 100 µM each time. Also, the TGI is greater than 100 µM in [7]; greater than 100 µM in assay [9]; greater than 31.6 µM in assay [10]; greater than 100 µM in [11]; greater than 100 µM in assay [12]; greater than 100 µM in assay [13]. For the same compound, the TGI in assay [14], in assay [15], in [16], in assay [17], in assay [18] and in assay [19] was greater than 100 µM throughout.

Take `Oc1ccc(Cc2nccc3cc(O)c(O)cc23)cc1O`: the TGI in assay [1], in assay [2], in assay [3], in [4], in [5] and in [6] was greater than 100 µM each time. For the same compound, the TGI in assay [7] is greater than 100 µM; in assay [8] it was 78.2 µM; in assay [9], greater than 100 µM; in assay [10], greater than 100 µM; in assay [11], greater than 100 µM; in assay [12], 51.3 µM. Also, the TGI in assay [13] is greater than 100 µM; in assay [14], greater than 100 µM; in assay [15], 35.1 µM; in assay [16], greater than 100 µM; in assay [17], greater than 100 µM; in [18], greater than 100 µM. For the same compound, in [19], the TGI was greater than 100 µM.

As to `CC(C)(C)NCC(O)c1ccc(O)c(CO)n1` (stereo unspecified), the TGI in assay [1], in assay [2], in assay [3], in assay [4], in [5] and in assay [6] was greater than 100 µM in each case. For the same compound, the TGI in [7], in assay [8], in assay [9], in assay [10], in [11] and in [12] was greater than 100 µM in each case. Also, the TGI in assay [13], in assay [14], in assay [15], in assay [16], in [17] and in assay [18] was greater than 100 µM in each case. The TGI in [19] was greater than 100 µM.

Consider `C[n+]1ccc(Nc2ccc(NC(=O)c3ccc(Nc4cc[n+](C)c5ccc([N+](=O)[O-])cc45)cc3[N+](=O)[O-])cc2)cc1`, for which the TGI was 84.9 µM and > 100 µM in [1]; > 90.4 µM and 63.6 µM in assay [2]; greater than 100 µM in assay [3]; > 47.7 µM and 69.9 µM in [4]; greater than 94.1 µM in [5]; greater than 100 µM in assay [6]. Further, the TGI in assay [7], in assay [8], in assay [9], in assay [10], in assay [11] and in assay [12] was greater than 100 µM in each case. For the same compound, the concentration for total growth inhibition (TGI) is greater than 100 µM in [13]; greater than 100 µM in [14]; greater than 100 µM in [15]; 70.4 µM and > 70.4 µM in [16]; greater than 100 µM in assay [17]; 99.7 µM and > 100 µM in [18]. Also, the TGI in [19] is greater than 100 µM. Moreover, the GI50 in assay [4] was 4.7 µM and 10.3 µM.

As to `C[n+]1c2ccccc2c(NC(CS)C(=O)O)c2ccccc21` (stereo unspecified), the total growth inhibition concentration (TGI) in assay [1] is 73.5 µM; in assay [2], 34.2 µM; in assay [3], greater than 100 µM; in assay [4], 44.8 µM; in [5], 53 µM; in assay [6], greater than 100 µM. The TGI is greater than 100 µM in assay [7]; greater than 100 µM in assay [8]; 53.9 µM in [9]; 64.9 µM in assay [10]; greater than 100 µM in assay [11]; greater than 100 µM in assay [12]. For the same compound, the TGI in assay [13] is 60.7 µM; in assay [14] it was greater than 100 µM; in [15], 30.7 µM; in [16] it was 44.6 µM; in assay [17], 70.2 µM; in [18], greater than 100 µM. For the same compound, in [19], the TGI was determined as 38.6 µM.

Turning to `Cc1c(Cl)c(S(N)(=O)=O)cc2c1NC=NS2(=O)=O`, the total growth inhibition concentration (TGI) in assay [1], in [2], in [3], in [5], in assay [6] and in [7] was greater than 100 µM throughout. For the same compound, the TGI in assay [8], in assay [9], in [10], in [11], in assay [12] and in assay [13] was greater than 100 µM throughout. The TGI in [14], in assay [15], in assay [16], in assay [17], in assay [18] and in [19] was greater than 100 µM each time.

For `Cc1ccc(N=Nc2ccc(N)cc2C)c(S(N)(=O)=O)c1`, the TGI in assay [1], in [2], in assay [3], in assay [4], in assay [5] and in [6] was greater than 100 µM each time. The TGI in assay [7], in [8], in [9], in assay [10], in assay [11] and in [12] was greater than 100 µM throughout. In addition, the concentration for total growth inhibition (TGI) in assay [13], in assay [14], in [15], in assay [16], in assay [17] and in assay [18] was greater than 100 µM in each case. The same compound yielded a TGI in [19] greater than 100 µM.

Regarding `Nc1c(C(=O)Nc2ccc(C3=NCCN3)cc2)cccc1C(=O)Nc1ccc(C2=NCCN2)cc1`, the TGI in assay [2], in assay [3], in assay [4], in assay [5], in [6] and in assay [7] was greater than 100 µM each time. Further, the TGI in assay [9], in assay [10], in [11], in assay [12], in [13] and in [14] was greater than 100 µM in each case. The TGI in assay [15], in assay [16], in assay [17], in [18] and in assay [19] was greater than 100 µM throughout.

For the compound `Cc1cc2sc(C)[n+](CCCOS(=O)(=O)[O-])c2cc1C`, the TGI in assay [1], in assay [2], in assay [3], in [4], in assay [5] and in assay [6] was greater than 100 µM in each case. For the same compound, the concentration for total growth inhibition (TGI) in assay [7], in assay [8], in assay [9], in assay [10], in [11] and in assay [12] was greater than 100 µM each time. Besides, the TGI in assay [13], in [14], in assay [15], in [16], in assay [17] and in [18] was greater than 100 µM in each case. This compound also displayed a TGI in [19] greater than 100 µM.

On to `C/C(=N\NC(=S)N1CCN(C)CC1)c1nc2ncccc2[nH]1`, for which the TGI in assay [1], in assay [2], in assay [3], in assay [4], in assay [5] and in [6] was greater than 100 µM in each case. Moreover, the TGI in [7], in assay [8], in assay [9], in assay [10], in assay [11] and in assay [12] was greater than 100 µM each time. In addition, the concentration for total growth inhibition (TGI) in [14], in [16], in assay [17], in assay [18] and in assay [19] was greater than 100 µM in each case.

With `C/C=C(\C)C(=O)OC1C(C)=C2C(C1OC(=O)CCCC)C(C)(OC(C)=O)CC(OC(=O)CCCC)C1(O)C2OC(=O)C1(C)O` (stereo unspecified), the concentration for total growth inhibition (TGI) in [1] was 3.67 µM; in assay [2] it was 13.2 µM; in [3], greater than 47.4 µM; in assay [4], greater than 100 µM; in assay [5] it was greater than 100 µM; in [6], greater than 100 µM. In addition, the TGI was 4.53 µM in assay [8]; greater than 21.1 µM in assay [9]; greater than 42.5 µM in assay [10]; greater than 93.3 µM in assay [11]; 2.58 µM in assay [12]; greater than 100 µM in assay [13]. Moreover, the TGI is 9.72 µM in assay [14]; 2.09 µM in assay [15]; greater than 100 µM in [17]; greater than 25.8 µM in assay [18]; greater than 100 µM in assay [19].

For the compound `COC(=O)c1cc2cc3c(c(O)c2c(=O)o1)O[C@@]1(Oc2c(O)c4c(c(O)c2[C@H]1OC1CC(OC)C(O)C(C)O1)C(=O)C=C(OC)C4=O)[C@H](O)C3` (stereo partly specified), the TGI in assay [1] is 5.37 µM; in assay [2], 1.78 µM; in assay [3] it was 3.85 µM; in assay [4] it was 3.39 µM; in assay [6] it was 7.17 µM; in assay [7] it was greater than 39.8 µM. For the same compound, the TGI in assay [8] is greater than 100 µM; in assay [9], 4.44 µM; in [10], 9.51 µM; in [11], greater than 24.3 µM; in [12], 14.1 µM; in assay [13], 3.25 µM. The TGI in [14] was greater than 20.3 µM; in assay [15], greater than 20.8 µM; in assay [17], 5.19 µM; in assay [18], 17.1 µM; in [19] it was 6.22 µM.

As usually defined, the TGI is the concentration giving total growth inhibition. Read a low TGI as more potent growth arrest. What is called GI50 is the concentration at which growth is held to half of that of the control.

The record behind these values is PubChem BioAssay (NCI).
